Data as given in US8318730B2, “Fused hetrocyclic compounds” (Synta Pharmaceuticals Corporation, priority 2003, dated 2012).

Legend:
[1] = tested on: adjuvant arthritis (AA) in female Lewis rats; test: Treatment of adjuvant arthritis in rats; type: in vivo, rat; settings: oral administration once a day for 12 days; dose-dependent
Method: Adjuvant arthritis (AA) is induced in female Lewis rats by the intracutaneous injection (base of the tail) of 0.1 mL of a 10 mg/mL bacterial suspension made from ground, heat-killed Mycobacterium tuberculosis H37Ra suspended in incomplete Freund's adjuvant. Rats are given a test compound orally once a day for 12 days, starting the day following the induction. The development of polyarthritis is monitored daily by macroscopic inspection and assignment of an arthritis index to each animal, during the critical period (days 10 to 25 post-immunization).
The intensity of polyarthritis scored according to the following scheme: (a) Grade each paw from 0 to 3 based on erythema, swelling, and deformity of the joints: 0 for no erythema or swelling; 0.5 if swelling is detectable in at least one joint; 1 for mild swelling and erythema; 2 for swelling and erythema of both tarsus and carpus; and 3 for ankylosis and bony deformity. Maximum score for all 4 paws is thus 12. (b) Grade for other parts of the body: for each ear, 0.5 for redness and another 0.5 if knots are present; 1 for connective tissue swelling (saddle nose); and 1 for the presence of knots or kinks in the tail. The highest possible arthritic index is […].

[2] = tested on: DNBS-induced distal colitis in Wistar derived rats; test: Dinitrobenzene sulfonic acid-induced inflammatory bowel syndrome model rats; type: in vivo, rat; settings: oral, 24 and 2 hours before DNBS instillation and then daily for 5 days
Method: Wistar derived male or female rats weighing 200±20 g and fasted for 24 hours are used. Distal colitis was induced by intra-colonic instillation of 2,4-dinitrobenzene sulfonic acid (DNBS, 25 mg in 0.5 mL ethanol 30%) after which air (2 mL) is gently injected through the cannula to ensure that the solution remained in the colon. A test compound and/or vehicle is administered orally 24 and 2 hours before DNBS instillation and then daily for 5 days. One control group is similarly treated with vehicle alone while the other is treated with vehicle plus DNBS. The animals are sacrificed 24 hours after the final dose of test compound administration and each colon is removed and weighed. Colon-to-body weight ratio is then calculated for each animal according to the formula: Colon (g)/BW×100. The “Net” increase in ratio of Vehicle-control+DNBS group relative to Vehicle-control group is used as a base for comparison with test substance treated groups and expressed as “% Deduction.” Fused heterocyclic compounds of this invention (e.g., Compound 12) reproducibly have about 30% deduction. A 30% or more reduction in colon-to-body weight ratio, relative to the vehicle treated control group, is considered significant.

IL-12 production = test: In vitro assay of Example 12: inhibition of IL-12 production in IFNγ/LPS- or IFNγ/SAC-stimulated cells, ELISA; type: cell-based, human; settings: Homo sapiens
Source text: The biological activities of a compound can be evaluated by a number of cell-based assays. One of such assays can be conducted using cells from human peripheral blood mononuclear cells (PBMC) or human monocytic cell line (THP-1). The cells are stimulated with a combination of human interferon-γ (IFNγ) and lipopolysaccharide or a combination of IFNγ and Staphylococcus aureus Cowan I in the presence of a test compound. The level of inhibition of IL-12 production can be measured by determining the amount of p70 by using a sandwich ELISA assay with anti-human IL-12 antibodies. IC50 of the test compound can then be determined. Specifically, PBMC or THP-1 cells are incubated with the test compound. Cell viability was assessed using the bioreduction of MTS [3-(4,5-dimethylthiazol-2-yl)-5-(3-carboxymethoxyphenyl)-2-(4-sulfophenyl)-2H-tetrazolium] (Promega, Madison, Wis.).
Staphylococcus aureus Cowan I (SAC) is obtained from Calbiochem (La Jolla, Calif.), and lipopolysaccharide (LPS, Serratia marscencens) is obtained from Sigma (St. Louis, Mo.). Human and mouse recombinant IFNγ are purchased from Boehringer Mannheim (Mannheim, Germany) and Pharmingen (San Diego, Calif.), respectively.
Human PBMC are isolated by centrifugation using Ficoll-Paque (Pharmacia Biotech, Uppsala, Sweden) and prepared in RPMI medium supplemented with 10% fetal calf serum (FCS), 100 U/mL penicillin, and 100 μg/mL streptomycin. PBMC are plated in wells of a 96-well plate at a concentration of 5×10^5 cells/well, and primed by adding IFNγ (30 U/mL) for 22 h and stimulated by adding LPS (1 μg/mL), or by adding IFNγ (100 U/mL) and then stimulated by adding SAC (0.01%). A test quinazoline compound is dissolved in DMSO, and added to wells of the 96-well plate. The final DMSO concentration is adjusted to 0.25% in all cultures, including the compound-free control. Human THP-1 cells are plated in wells, primed by adding IFNγ (100 U/mL) for 22 h and stimulated by adding SAC (0.025%) in the presence of different concentrations of the quinazoline compound. Cell-free supernatants are taken 18 h later for measurement of cytokines. Cell viability is assessed using the bioreduction of MTS. Cell survival is estimated by determining the ratio of the absorbance in compound-treated groups versus compound-free control.
The supernatant is assayed for the amount of IL-12p40, IL-12p70, or IL-10 by using a sandwich ELISA with anti-human antibodies, i.e., a Human IL-12 p40 ELISA kit from R&D Systems (Berkeley, Calif.), and a Human IL-12 p70 or IL-10 ELISA kit from Endogen (Cambridge, Mass.). Assays are based on the manufacturer's instructions.
The biological activities of quinazoline compounds are tested on human PBMC or THP-1 cells.

[3] = tested on: colitis in C.B-17 SCID mice; test: CD4+ CD45Rb high T cell-reconstituted SCID colitis model mice; type: in vivo, mouse
Method: Spleen cells are prepared from normal female BALB/c mice. For cell purification, the following anti-mouse antibodies are used to label non-CD4^+ T cells: B220 (RA3-6B2), CD11b (Ml/70), and CD8a (53-6.72). All antibodies are obtained from BioSource (Camarillo, Calif.). M450 anti-rat IgG-coated magnetic beads (Dynal, Oslo, Norway) are used to bind the antibodies and negative selection is accomplished using an MPC-1 magnetic concentrator. The enriched CD4^+ cells are then labeled for cell sorting with FITC-conjugated CD45RB (16A, Pharmingen, San Diego, Calif.) and PE-conjugated CD4 (CT-CD4, Caltag, Burlingame, Calif.). CD4^+ CD45RB^high cells are operationally defined as the upper 40% of CD45Rb-staining CD4^+ cells and sorted under sterile conditions by flow cytometry. Harvested cells are resuspended at 4×10^6/mL in PBS and injected 100 μL intraperitoneally into female C.B-17 SCID mice. Fused heterocyclic compounds of this invention and/or vehicle is orally administered once a day, 5 days per week, starting the day following the transfer. The transplanted SCID mice are weighed weekly and their clinical condition is monitored.
Colon tissue samples are fixed in 10% buffered formalin and embedded in paraffin. Sections (4 μm) collected from ascending, transverse, and descending colon are cut and stained with hematoxylin and eosin. The severity of colitis is determined based on histological examination of the distal colon sections, whereby the extent of colonic inflammation is graded on a scale of 0-3 in each of four criteria: crypt elongation, cell infiltration, depletion of goblet cells, and the number of crypt abscesses.
LP lymphocytes are isolated from freshly obtained colonic specimens. After removal of payer's patches, the colon is washed in Ca/Mg-free HBSS, cut into 0.5 cm pieces and incubated twice in HBSS containing EDTA (0.75 mM), DTT (1 mM), and antibiotics (amphotericin 2.5 μg/mL, gentamicin 50 μg/mL from Sigma) at 37° C. for 15 min. Next, the tissue is digested further in RPMI containing 0.5 mg/mL collagenase D, 0.01 mg/mL DNase I (Boehringer Manheim), and antibiotics at 37° C. LP cells are then layered on a 40-100% Percoll gradient (Pharmacia, Uppsala, Sweden), and lymphocyte-enriched populations are isolated from the cells at the 40-100% interface.
To measure cytokine production, 48-well plates are coated with 10 μg/mL murine anti-CD3ε antibody (145-2C11) in carbonate buffer (PH 9.6) overnight at 4° C. 5×10^5 LP cells are then cultured in 0.5 ml of complete medium in precoated wells in the presence of 1 μg/mL soluble anti-CD28 antibody (37.51). Purified antibodies are obtained from Pharmingen. […] Murine IFNγ is measured using an ELISA kit from Endogen (Cambridge, Mass.), according to the manufacturer's instructions.

[4] = assay of Example 12, if more than one assay was performed, only the most active IC50 result is reported

Row | SMILES | IC50 (IL-12 production; [4]) [nM] | further results
1 | Cc1cccc(-c2ccc3nc(OCCN4CCOCC4)nc(N4CCOCC4)c3c2)c1 [Compound 12, 4-Morpholin-4-yl-2-(2-morpholin-4-yl-ethoxy)-6-m-tolyl-quinazoline] | 189 | arthritic score [1]: reproducibly reduces the arthritic score; development of polyarthritis [1]: delayes the development of polyarthritis; % Deduction (colon-to-body weight ratio) [2]: about 30%; IFNγ production by LP cells in response to anti-CD3 and anti-CD28 antibody ([3]; ex vivo LP cells from treated mice): greatly diminishes the production; colon-to-body weight ratio ([3]; oral administration): attenuation; colonic inflammation (histological analysis) ([3]; oral administration, compared to vehicle control): reduce colonic inflammation; colonic inflammation, suppressive effect ([3]; oral, dose of 10 mg/kg): substantial reduction
2 | Cc1ccc(-c2ccc3nc(OCCN4CCOCC4)nc(N4CCOCC4)c3c2)cc1 [Compound 37, 4-Morpholin-4-yl-2-(2-morpholin-4-yl-ethoxy)-6-p-tolyl-quinazoline] | 2500 | –
3 | Fc1ccc(-c2ccc3nc(OCCN4CCOCC4)nc(N4CCOCC4)c3c2)cc1 [Compound 38, 6-(4-Fluoro-phenyl)-4-morpholin-4-yl-2-(2-morpholin-4-yl-ethoxy)-quinazoline] | > 10000 | –
4 | COc1ccc(CCOc2nc(N3CCOCC3)c3cc(Nc4cccc(C)c4)ccc3n2)cc1OC [Compound 39, {2-[2-(3,4-Dimethoxy-phenyl)-ethoxy]-4-morpholin-4-yl-quinazolin-6-yl}-m-tolyl-amine] | > 10000 | –
5 | COc1ccc(CCOc2nc(N3CCOCC3)c3cc(Nc4ccc(C)cc4)ccc3n2)cc1OC [Compound 40, {2-[2-(3,4-Dimethoxy-phenyl)-ethoxy]-4-morpholin-4-yl-quinazolin-6-yl}-p-tolyl-amine] | > 10000 | –
6 | COc1ccc(CCOc2nc(N3CCOCC3)c3cc(Nc4ccccc4C)ccc3n2)cc1OC [Compound 41, {2-[2-(3,4-Dimethoxy-phenyl)-ethoxy]-4-morpholin-4-yl-quinazolin-6-yl}-o-tolyl-amine] | > 10000 | –
7 | Cc1cccc(-c2cnc3nc(OCCN4CCOCC4)nc(N4CCOCC4)c3c2)c1 [Compound 42, 4-Morpholin-4-yl-2-(2-morpholin-4-yl-ethoxy)-6-m-tolyl-pyrido[2,3-d]pyrimidine] | > 10000 | –
8 | FC(F)(F)c1cccc(-c2cnc3nc(OCCN4CCOCC4)nc(N4CCOCC4)c3c2)c1 [Compound 43, 4-Morpholin-4-yl-2-(2-morpholin-4-yl-ethoxy)-6-(3-trifluoromethyl-phenyl)-pyrido[2,3-d]pyrimidine] | 1400 | –
9 | Cc1ccc(-c2cnc3nc(OCCN4CCOCC4)nc(N4CCOCC4)c3c2)cc1C [Compound 44, 6-(3,4-Dimethyl-phenyl)-4-morpholin-4-yl-2-(2-morpholin-4-yl-ethoxy)-pyrido[2,3-d]pyrimidine] | > 10000 | –
10 | c1ccc2oc(-c3cnc4nc(OCCN5CCOCC5)nc(N5CCOCC5)c4c3)cc2c1 [Compound 45, 6-Benzofuran-2-yl-4-morpholin-4-yl-2-(2-morpholin-4-yl-ethoxy)-pyrido[2,3-d]pyrimidine] | 770 | –
11 | Cc1ccccc1Oc1cnc2nc(OCCN3CCOCC3)nc(N3CCOCC3)c2c1 [Compound 46, 4-Morpholin-4-yl-2-(2-morpholin-4-yl-ethoxy)-6-o-tolyloxy-pyrido[2,3-d]pyrimidine] | > 1000 | –
12 | Cc1ccc(Oc2cnc3nc(OCCN4CCOCC4)nc(N4CCOCC4)c3c2)cc1 [Compound 47, 4-Morpholin-4-yl-2-(2-morpholin-4-yl-ethoxy)-6-p-tolyloxy-pyrido[2,3-d]pyrimidine] | > 1000 | –
13 | c1ccc(Oc2cnc3nc(OCCN4CCOCC4)nc(N4CCOCC4)c3c2)cc1 [Compound 48, 4-Morpholin-4-yl-2-(2-morpholin-4-yl-ethoxy)-6-phenoxy-pyrido[2,3-d]pyrimidine] | > 1000 | –
14 | Cc1cccc(-c2cc(O)c3cc(OCCN4CCOCC4)cc(N4CCOCC4)c3n2)c1 [Compound 49, 8-Morpholin-4-yl-6-(2-morpholin-4-yl-ethoxy)-2-m-tolyl-quinolin-4-ol] | – | IC50 (IL-12 production; in an assay according to Example 12): 5400 nM
